Data published in patent publication US20040053299A1, “Regulated activation of cell-membrane receptors by metal-chelating agonists” (priority 2003, published 2004).
Changes are numbered by the printed parent chain.

Key:
HepG2 = assay: STAT-responsive luciferase reporter in HepG2 cells without transfected receptor; type: cell-based, human; settings: HepG2 transfected with STAT-responsive luciferase reporter only, no TPO receptor
Procedure: (§1) International Application No. PCT/US99/30371, published as WO 00/35446 on Jun. 22, 2000, discloses that the TPO receptor can be activated by small molecule ligands of Formula (I).
(§2) In determining the efficacy and potency of the presently invented compounds as agonists of dimeric cell-surface receptors, a luciferase reporter gene assay configured in HepG2 cells was utilized (see Tian et al., Science 1998, 281, 257-259).
HepG2 cells were plated in 24-well plates in triplicates for overnight. The cells were then transfected with the indicated receptor construct, a GAS response element containing luciferase reporter, 8×118-TkLUC and STAT5b expression vector (a gift of Dr. James Ihle, Memphis, Tenn.) by Superfect method (QIAGEN, Valencia, Calif.) as instructed by the manufacturer. After an overnight recovery, the transfected cells were treated with 0.1% DMSO, TPO or compound of Example 4 at the indicated concentrations for 4-5 hrs. The cells were then lysed and the level of luciferase expression was measured by a plate reader.

human TPO receptor = molecular target: T1, human TPO receptor (Homo sapiens, UniProt P40238); assay: luciferase reporter in HepG2 cells cotransfected with human TPO receptor; type: cell-based; settings: HepG2 cotransfected with human TPO receptor expression vector and reporter
T1 construct: expressed in transfected cells; host or cells: HepG2
T1 sequence (P40238 26-635): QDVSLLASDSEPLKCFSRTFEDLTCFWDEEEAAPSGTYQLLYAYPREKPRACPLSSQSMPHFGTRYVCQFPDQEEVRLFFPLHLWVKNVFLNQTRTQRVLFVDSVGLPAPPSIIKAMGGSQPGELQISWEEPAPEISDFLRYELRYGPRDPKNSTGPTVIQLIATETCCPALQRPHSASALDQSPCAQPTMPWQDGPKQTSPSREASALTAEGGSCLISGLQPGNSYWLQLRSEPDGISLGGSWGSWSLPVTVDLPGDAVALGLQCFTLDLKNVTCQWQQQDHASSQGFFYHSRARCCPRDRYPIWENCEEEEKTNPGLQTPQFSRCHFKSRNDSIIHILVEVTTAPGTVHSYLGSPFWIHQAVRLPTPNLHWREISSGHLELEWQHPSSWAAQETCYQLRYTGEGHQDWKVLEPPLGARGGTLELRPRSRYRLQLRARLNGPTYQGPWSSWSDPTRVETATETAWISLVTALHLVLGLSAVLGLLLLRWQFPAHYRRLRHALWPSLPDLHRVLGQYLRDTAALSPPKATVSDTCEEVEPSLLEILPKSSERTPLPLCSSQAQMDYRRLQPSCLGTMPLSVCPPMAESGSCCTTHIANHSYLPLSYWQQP
Text: as §1, §2
Human Tpo receptor (hMPL) was cloned from HEL 92.1.7 cells (ATCC, Rockville, Md.) by PCR (forward primer: 5′-ACGAAGCTTAGCCAAGATGTCTCCTTGCTGGCAT-3′ and reverse primer: 5′-AGCCTCGAGTCAAGGCTGCTGCCAATAGCT-3′). The cloned full-length cDNA was confirmed by DNA sequencing analysis, then subcloned into HindIII-XhoI digested pSSF vector. The cynomolgous Tpo-R (cMPL) was cloned from bone marrow cDNA using the human 5′ and 3′ terminal coding sequences. The full-length cDNA was sequenced and subcloned into EcoRI digested pCDNA3. 1 (+) vector (Invitrogen, San Diego, Calif.). […]
HepG2 cells were plated in 24-well plates in triplicates for overnight. […] The cells were then lysed and the level of luciferase expression was measured by a plate reader.

human TPO receptor H499L = molecular target: T2, human TPO receptor H499L (Homo sapiens, UniProt P40238, H499L); assay: luciferase reporter in HepG2 cells, H499L point mutant of human TPO receptor; type: cell-based; settings: H499L point mutation in the human TPO receptor
T2 construct: expressed in transfected cells; host or cells: HepG2
T2 sequence (P40238 26-635 H499L): T1 sequence (P40238 26-635) with H474L
Text: (§3) To further investigate the activity of compounds of Formula (I), cDNA clones for cynomolgous monkey TPO receptor were isolated and sequenced. […] It was clear from these experiments that the compounds of Formula I show strict specificity for the human TPO receptor, a finding also confirmed by STAT activation assays of platelets from human and cyno origin. In order to examine the region of the TPO receptor required for compound activity, a series of human/cyno TPO-R chimeric receptors were transfected into HepG2 cells and tested for their response to compounds of Formula (I). […] To investigate the role of this specific transmembrane domain mutation on the activity of compounds of Formula (I), two point mutations were constructed: a) a H499L change into the human TPO receptor transmembrane domain, creating a receptor with human extracellular and cytoplasmic domains and a cyno receptor transmembrane domain and b) a L499H change into the cyno receptor transmembrane domain creating a chimera with cyno extracellular and cytoplasmic domains and a human transmembrane domain. […] Conversely, the L499H mutation in the cyno TPO receptor allowed it to be activated by both TPO and the compounds with potencies and efficacies similar to those seen on wild type human receptor. […]

cyno TPO receptor L499H = assay: luciferase reporter in HepG2 cells, L499H point mutant of cyno TPO receptor; type: cell-based, cynomolgous monkey; settings: L499H mutation in the cyno TPO receptor
Text: as §3

Substance: TPO: thrombopoietin, natural protein ligand of the TPO receptor
- response, luciferase expression (HepG2): do not respond
- response, luciferase expression (human TPO receptor): large increase in luciferase expression
- receptor response (human TPO receptor H499L): little effect on the response
- receptor activation (cyno TPO receptor L499H): activated
